Consider eight compounds from patent US20170119806A1, “[…] LACTONE DERIVATIVES AND METHODS OF MAKING AND USING THEREOF” (OHIO STATE INNOVATION FOUNDATION, priority 2014, published 2017).

Each structure is given as a SMILES string. “Also recorded” adds a separate entry of the source. Read-outs that look alike come from different tables or passages of the source.

Series [1] relates to human colon cancer HT-29 cells implanted in NCr nu/nu mice. The note with it: ip once daily for four days; for activity in in vivo hollow fiber assay (HT-29 cell growth): 5.0-20.0 mg/kg; for toxicity in mice of the hollow fiber assay: up to 20.0 mg/kg.
Protocol: Mice were treated with the indicated doses of 1 once a day by intraperitoneal injection from day 3 to day 6 after implantation of the HT-29 cells facilitated in hollow fibers.
In Vivo Hollow Fiber Assay. […] The human colon cancer cell line HT-29 was used to evaluate 1 using procedures previously described (Mi Q et al. J. Nat. Prod 2009, 72,573-580; Pearce C J et al. Methods Mol. Biol, 2012, 944, 267-277). Eight- to nine-week-old immunodeficient NCr nu/nu mice were purchased from The Jackson Laboratory (Bar Harbor, Me., USA) and housed in microisolation cages at room temperature and a relative humidity of 50-60% under 12:12 h light-dark cycle. […] The mixture was diluted with distilled water to 13% DMSO and 25% CREMOPHOR™. The mice were injected ip once daily for four days with 1 or the positive control (paclitaxel). Each mouse was weighed daily during the study. […] The fibers were retrieved and viable cell mass was evaluated by a modified MTT (3-(4,5-dimethylthiazol-2-yl)-2,5-diphenyltetrazolium bromide) assay. The percentage of the net growth for the cells in each treatment group was calculated by subtracting the day 0 absorbance from the day 7 absorbance and dividing this difference by the net growth in the vehicle control (minus value between the day 7 and the day). Data were compared by the Student's t test, and a p value less than 0.05 was considered statistically significant.
Immunodeficient NCr nu/nu mice implanted with human colon cancer HT-29 cells placed in hollow fibers were treated once daily by 1 at doses of 5.0, 10.0, 15.0, or 20.0 mg/kg, or the vehicle control, or paclitaxel (5 mg/kg), by intraperitoneal (ip) injection tier four days. The relative FIT-29 cell growth values from all mice were calculated.
Series [2] has as its system HT-29 human colon cancer cells. As to the kind of experiment: Cytotoxicity against HT-29 cells.
The subject of series [3] is CCD-112CoN normal human colon cells. As to the kind of experiment: Cytotoxicity against CCD-112CoN cells. The note with it: for IC50: read-out: IC50 values toward the CCD-112 CoN cells.
Description: Following a previous procedure (Still P C et al. J. Nat. Prod. 2013, 76, 243-249) and the method for screening cytotoxicity towards HT-29 cells mentioned above, the cytotoxicity of the samples was screened against CCD-112CoN normal human colon cells.
A further series has as its system HT-29 cells. As to the kind of experiment: Annexin V staining apoptosis assay. Conditions: for HT-29 cell apoptosis at the late-stage / HT-29 cells undergoing early apoptosis: 72 h.
A further series deals with topo IIα (Homo sapiens, UniProt P11388). As to the kind of experiment: Topoisomerase II assay (DNA cleavage/relaxation). Conditions: 100 μM test compound. It is filed as biochemical. The source says: The formation of linear DNA was detected by separating the SDS-treated reaction products using ethidium bromide gel electrophoresis and quantified by accounting for the relationship between fluorescence and relative band intensity for open circular (OC), linear (LNR), supercoiled (SC), and relaxed (RLX) configurations of DNA.
Chain of topo IIα (P11388 whole entry): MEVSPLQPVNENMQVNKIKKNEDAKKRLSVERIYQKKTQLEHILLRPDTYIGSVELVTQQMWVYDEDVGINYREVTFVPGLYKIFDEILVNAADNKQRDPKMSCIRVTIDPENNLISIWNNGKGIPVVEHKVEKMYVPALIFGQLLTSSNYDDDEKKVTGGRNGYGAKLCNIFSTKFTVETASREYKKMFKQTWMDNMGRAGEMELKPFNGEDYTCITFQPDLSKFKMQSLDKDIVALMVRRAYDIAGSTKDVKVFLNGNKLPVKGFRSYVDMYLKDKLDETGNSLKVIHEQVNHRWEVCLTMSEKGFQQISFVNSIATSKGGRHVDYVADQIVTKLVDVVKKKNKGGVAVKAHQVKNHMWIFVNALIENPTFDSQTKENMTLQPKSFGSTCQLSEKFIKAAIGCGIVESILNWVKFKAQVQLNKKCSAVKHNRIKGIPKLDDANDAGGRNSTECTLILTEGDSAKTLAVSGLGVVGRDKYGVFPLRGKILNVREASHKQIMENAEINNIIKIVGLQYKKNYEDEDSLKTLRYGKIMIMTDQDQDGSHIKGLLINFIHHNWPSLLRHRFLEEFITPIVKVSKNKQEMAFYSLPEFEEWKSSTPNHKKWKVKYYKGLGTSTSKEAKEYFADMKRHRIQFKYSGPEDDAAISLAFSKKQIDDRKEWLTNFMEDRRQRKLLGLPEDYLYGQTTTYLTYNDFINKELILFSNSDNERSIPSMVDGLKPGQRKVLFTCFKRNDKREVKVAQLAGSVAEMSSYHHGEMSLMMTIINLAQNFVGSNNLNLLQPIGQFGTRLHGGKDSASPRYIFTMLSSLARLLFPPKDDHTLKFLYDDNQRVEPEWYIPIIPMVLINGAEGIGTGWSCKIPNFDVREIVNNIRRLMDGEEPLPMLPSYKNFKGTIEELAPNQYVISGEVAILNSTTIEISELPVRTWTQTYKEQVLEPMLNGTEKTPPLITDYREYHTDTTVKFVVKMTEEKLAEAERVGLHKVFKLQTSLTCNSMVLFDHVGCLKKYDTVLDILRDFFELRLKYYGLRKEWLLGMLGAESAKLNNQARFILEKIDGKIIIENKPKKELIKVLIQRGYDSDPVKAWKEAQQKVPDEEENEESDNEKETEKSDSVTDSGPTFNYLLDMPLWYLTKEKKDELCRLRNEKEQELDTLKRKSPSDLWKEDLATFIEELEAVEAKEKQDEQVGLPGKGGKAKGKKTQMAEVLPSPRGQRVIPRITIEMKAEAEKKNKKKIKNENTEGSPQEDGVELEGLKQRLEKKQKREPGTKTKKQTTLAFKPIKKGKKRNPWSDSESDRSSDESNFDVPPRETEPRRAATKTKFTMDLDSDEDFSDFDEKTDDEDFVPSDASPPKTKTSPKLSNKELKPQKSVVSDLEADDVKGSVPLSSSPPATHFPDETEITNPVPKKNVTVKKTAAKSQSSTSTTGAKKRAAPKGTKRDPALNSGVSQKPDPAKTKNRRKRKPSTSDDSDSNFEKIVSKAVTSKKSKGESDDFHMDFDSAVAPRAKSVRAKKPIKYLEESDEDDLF
Topoisomerase II Assay. […] The formation of linear DNA was detected by separating the SDS-treated reaction products using ethidium bromide gel electrophoresis by a modification of a previously described procedure (Hasinoff B B et al. Mol. Pharmacol. 2005, 67, 937-947). In this system, topo II-mediated catalytic conversion of supercoiled pBR322 DNA to the “relaxed” form of plasmic' DNA can also be observed. A 20 μL cleavage assay reaction mixture contained 250 ng topo IIα protein, 160 ng pBR322 plasmid DNA (NEB, Ipswich, Mass.), 1.0 mM ATP in assay buffer (10 mM Tris-HCl (pH 7.5), 50 mM KCl, 50 mM NaCl, 0.1 mM EDTA, 5 mM MgCl2, 2.5% glycerol), and 100 μM of test compounds or DMSO solvent, as indicated. Assay buffer (17 μL) and test compound/DMSO (1 μL) were mixed and allowed to sit at room temperature for 30 min after which 2 μL of topo IIα was added to initiate the reaction. Tubes were incubated at 37° C. for 15 min, and then quenched with 1% (v/v) SDS/10 mM disodium EDTA/200 mM NaCl. The mixture was treated subsequently with 0.77 mg/mL proteinase K (Sigma) at 55° C. for 60 min to digest the protein, and DNA bands were separated by electrophoresis (18 h at 2 V/cm) on an agarose gel (1.3% w/v) containing 0.7 μg/mL ethidium bromide in TAE buffer pH 8.0 (40 mM Tris base, 0.114% (v/v) glacial acetic acid, 2 mM EDTA). The DNA in the gel was imaged by its fluorescence on a Chemi-Doc XRS+ imager (Bio-Rad, Hercules, Calif.). Linear DNA was quantified by accounting for the relationship between fluorescence and relative band intensity for open circular (QC), linear (LNR), supercoiled (SC), and RLX (relaxed) configurations of DNA (Projan S J et al. Plasmid 1983, 9, 182-190), then calculating % of LNR from the total DNA content in each lane.

The test system of series [4] is HT-29 human colon cancer cells.
The mark [5] stands for this setting: read-out: IC50 values toward the HT-29 cells, Table 6, triplicate, two independent experiments.
Setting [6] is: Homo sapiens, HT-29, read-out: IC50 values toward the HT-29 cells.

Usually IC50 stands for the concentration needed to halve the response being measured. Consider `COc1cc2c(O[C@@H]3OC[C@H](OC(C)=O)[C@H](OC(C)=O)[C@H]3O)c3c(c(-c4ccc5c(c4)OCO5)c2cc1OC)C(=O)OC3` [Compound 1, 7-O-[(3,4-di-O-acetyl)-α-L-arabinopyranosyl] diphyllin], for which the “activity in in vivo hollow fiber assay (HT-29 cell growth)” value in series [1] was “showed activity; also recorded: dose dependent tendency; also recorded: active; also recorded: antitumor efficacy in vivo”; in series [1] (listed as Phyllanthusmin D), “active”. For the same compound, the “toxicity in mice of the hollow fiber assay” value in series [1] is recorded as “no signs of toxicity; also recorded: No gross toxicity; also recorded: without any gross toxicity”; in series [1] (listed as Phyllanthusmin D) it was “no signs of gross toxicity”. In series [2] (read-out: ED50, toxicity towards HT-29 cells, natural samples), the EC50 turned out to be 170 nM. Moreover, the IC50 was 170 nM in series [2] (read-out: IC50, cytotoxicity toward HT-29 cells) and over 100 µM in series [3] (Table 6). For the same compound, the “cytotoxicity toward CCD-112CoN human normal colon cells (in words)” value in series [3] is “non-cytotoxic”. In the series with HT-29 cells, the “HT-29 cell apoptosis induction (in words)” value is “inducing tumor cell apoptosis; also recorded: induction of tumor cell apoptosis; also recorded: can induce HT-29 cell apoptosis”. Further, the “HT-29 cell apoptosis at the late-stage” value with HT-29 cells (1 μM) came to 27.3%; with HT-29 cells (5 μM), 38.0%. The “HT-29 cells undergoing early apoptosis” value with HT-29 cells (1 μM) is recorded as 28.2%; with HT-29 cells (5 μM), 30.3%. Besides, the “topo IIα inhibition (in words)” value on topo IIα is given as “did not inhibit DNA topoisomerase IIα activity; also recorded: not topo Ha inhibitors; also recorded: no inhibitory activity against topo IIα; also recorded: not topo IIα inhibitors”.

For the compound `COc1cc2c(O[C@@H]3OC[C@H](O)[C@H](OC(C)=O)[C@H]3O)c3c(c(-c4ccc5c(c4)OCO5)c2cc1OC)C(=O)OC3` [Compound 2, 7-O-[(3-O-acetyl)-α-L-arabinopyranosyl] diphyllin], the half-maximal inhibitory concentration (IC50) in series [2] (setting [5]) amounted to 1800 nM.

With `COc1cc2c(O[C@@H]3OC[C@H](OC(C)=O)[C@H](O)[C@H]3O)c3c(c(-c4ccc5c(c4)OCO5)c2cc1OC)C(=O)OC3` [Compound 3, Phyllanthusmin B], the IC50 in series [2] (setting [5]) is 1800 nM. For the same compound, the “cytotoxicity toward HT-29 cells (in words)” value in series [4] is reported as “cytotoxic”.

As for `COc1cc2c(O[C@@H]3O[C@H](CO)[C@@H](O)[C@H](O)[C@H]3O)c3c(c(-c4ccc5c(c4)OCO5)c2cc1OC)C(=O)OC3` [Compound 5, Cleistanthin B], the IC50 in series [2] (setting [5]) is over 10000 nM.

`COc1cc2c(OC)c3c(c(-c4ccc5c(c4)OCO5)c2cc1O)C(=O)OC3` [Compound 6, Phyllanthusmin A]: the half-maximal inhibitory concentration (IC50) in series [2] (setting [5]) was over 10000 nM. In series [4], the “cytotoxicity toward HT-29 cells (in words)” value was “inactive”.

As to `COc1cc2c(O)c3c(c(-c4ccc5c(c4)OCO5)c2cc1OC)C(=O)OC3` [Compound 8, Diphyllin], in series [2] (setting [6]), the IC50 was 7600 nM.

As for `COc1cc([C@@H]2c3cc4c(cc3[C@@H](O[C@@H]3O[C@@H]5CO[C@@H](C)O[C@H]5[C@H](O)[C@H]3O)[C@H]3COC(=O)[C@H]23)OCO4)cc(OC)c1O` [etoposide, reference compound], the concentration for half-maximal inhibition (IC50) in series [2] (setting [6]) is over 10000 nM. For the same compound, in the series with HT-29 cells (1 μM), the “HT-29 cell apoptosis at the late-stage” value came out at 19.8% and the “HT-29 cells undergoing early apoptosis” value came out at 12.9%. Moreover, in the series with HT-29 cells (5 μM), the “HT-29 cell apoptosis at the late-stage” value was 25.3% and the “HT-29 cells undergoing early apoptosis” value is recorded as 12.5%.

On to `CC(=O)O[C@H]1C(=O)[C@@]2(C)[C@H]([C@H](OC(=O)c3ccccc3)[C@]3(O)C[C@H](OC(=O)[C@H](O)[C@@H](NC(=O)c4ccccc4)c4ccccc4)C(C)=C1C3(C)C)[C@]1(OC(C)=O)CO[C@@H]1C[C@@H]2O` [paclitaxel, reference compound], for which the IC50 in series [2] (setting [6]) is 1 nM; in series [3] (Homo sapiens, CCD-112CoN), 23 µM.
